# Source: ChEMBL document CHEMBL3885861, “Open TG-GATES”
# Species on record: Rattus norvegicus
# Experiment: Open TG-GATES - Regimen: Daily Repeat
# Type: toxicity, organism-based, Sprague-Dawley
# Set-up: regimen Daily Repeat, gender Male, age 6 weeks
# Conditions: in vivo, po, 300 mg/kg, route gavage, dose level Middle; for APTT / Bas / Eos / Fbg / Hb / Ht / Lym / MCH / MCHC / MCV / Mono / Neu / PT / Plat / RBC / Ret / WBC: tissue Blood; for KIDNEY_L / KIDNEY_R / KIDNEY_TOTAL: tissue Kidney; for LIVER: tissue Liver; for A/G / ALP / ALT / AST / BUN / CRE / Ca / Cl / DBIL / GLC / IP / K / LDH / Na / PL / RALB / TBIL / TC / TG / TP / gamma-GTP: tissue Plasma
compound,measurement,setting,value
CNC(=C[N+](=O)[O-])NCCSCc1ccc(CN(C)C)o1 [RANITIDINE],TERMINAL_BW,"72 h, time 3 day",231.7 g
same,APTT,"72 h, time 3 day",20.3 s
same,Bas,"72 h, time 3 day",0%
same,Eos,"72 h, time 3 day",1%
same,Fbg,"72 h, time 3 day",234.4 mg/dL
same,Hb,"72 h, time 3 day",13.5 g/dL
same,Ht,"72 h, time 3 day",39.4%
same,Lym,"72 h, time 3 day",78.8%
same,MCH,"72 h, time 3 day",21.9 pg
same,MCHC,"72 h, time 3 day",34.3%
same,MCV,"72 h, time 3 day",63.8 fL
same,Mono,"72 h, time 3 day",3.2%
same,Neu,"72 h, time 3 day",15.8%
same,PT,"72 h, time 3 day",12.4 s
same,Plat,"72 h, time 3 day",118.4 x10_4/uL
same,RBC,"72 h, time 3 day",616.4 x10_4/ul
same,Ret,"72 h, time 3 day",5.1%
same,WBC,"72 h, time 3 day",112.2 x10_2/uL
same,KIDNEY_L,"72 h, time 3 day",1 g
same,KIDNEY_R,"72 h, time 3 day",1 g
same,KIDNEY_TOTAL,"72 h, time 3 day",2 g
same,LIVER,"72 h, time 3 day",11.1 g
same,A/G,"72 h, time 3 day",1.6
same,ALP,"72 h, time 3 day",966.2 IU/L
same,ALT,"72 h, time 3 day",43.4 IU/L
same,AST,"72 h, time 3 day",80 IU/L
same,BUN,"72 h, time 3 day",14.8 mg/dL
same,CRE,"72 h, time 3 day",0.4 mg/dL
same,Ca,"72 h, time 3 day",10.9 mg/dL
same,Cl,"72 h, time 3 day",104 meq/L
same,DBIL,"72 h, time 3 day",0.09 mg/dL
same,GLC,"72 h, time 3 day",196.6 mg/dL
same,IP,"72 h, time 3 day",7.2 mg/dL
same,K,"72 h, time 3 day",4.2 meq/L
same,LDH,"72 h, time 3 day",195.6 IU/L
same,Na,"72 h, time 3 day",141.2 meq/L
same,PL,"72 h, time 3 day",142.8 mg/dL
same,RALB,"72 h, time 3 day",3.4 g/dL
same,TBIL,"72 h, time 3 day",0.1 mg/dL
same,TC,"72 h, time 3 day",78.4 mg/dL
same,TG,"72 h, time 3 day",80 mg/dL
same,TP,"72 h, time 3 day",5.5 g/dL
same,gamma-GTP,"72 h, time 3 day",1.8 IU/L
same,TERMINAL_BW,"[…], time 7 day",260.6 g
same,TERMINAL_BW,"[…], time 14 day",309.4 g
same,TERMINAL_BW,"[…], time 28 day",391.7 g
same,APTT,"[…], time 7 day",20.6 s
same,Bas,"[…], time 7 day",0%
same,Eos,"[…], time 7 day",1%
same,Fbg,"[…], time 7 day",227.4 mg/dL
same,Hb,"[…], time 7 day",14.1 g/dL
same,Ht,"[…], time 7 day",39.9%
same,Lym,"[…], time 7 day",83.6%
same,MCH,"[…], time 7 day",22 pg
same,MCHC,"[…], time 7 day",35.5%
same,MCV,"[…], time 7 day",62 fL
same,Mono,"[…], time 7 day",1.6%
same,Neu,"[…], time 7 day",12.4%
same,PT,"[…], time 7 day",12.4 s
same,Plat,"[…], time 7 day",130.4 x10_4/uL
same,RBC,"[…], time 7 day",644.2 x10_4/ul
same,Ret,"[…], time 7 day",4.8%
same,WBC,"[…], time 7 day",81.6 x10_2/uL
same,APTT,"[…], time 14 day",19.1 s
same,Bas,"[…], time 14 day",0%
same,Eos,"[…], time 14 day",0.8%
same,Fbg,"[…], time 14 day",239.2 mg/dL
same,Hb,"[…], time 14 day",14.6 g/dL
same,Ht,"[…], time 14 day",40.6%
same,Lym,"[…], time 14 day",76.8%
same,MCH,"[…], time 14 day",21.3 pg
same,MCHC,"[…], time 14 day",36%
same,MCV,"[…], time 14 day",59.2 fL
same,Mono,"[…], time 14 day",2.4%
same,Neu,"[…], time 14 day",18.4%
same,PT,"[…], time 14 day",12.1 s
same,Plat,"[…], time 14 day",117.4 x10_4/uL
same,RBC,"[…], time 14 day",687.2 x10_4/ul
same,Ret,"[…], time 14 day",3.9%
same,WBC,"[…], time 14 day",111.2 x10_2/uL
same,APTT,"[…], time 28 day",21 s
same,Bas,"[…], time 28 day",0%
same,Eos,"[…], time 28 day",1.2%
same,Fbg,"[…], time 28 day",216.2 mg/dL
same,Hb,"[…], time 28 day",15.3 g/dL
same,Ht,"[…], time 28 day",43.2%
same,Lym,"[…], time 28 day",81.4%
same,MCH,"[…], time 28 day",20.5 pg
same,MCHC,"[…], time 28 day",35.4%
same,MCV,"[…], time 28 day",58.1 fL
same,Mono,"[…], time 28 day",1.8%
same,Neu,"[…], time 28 day",14%
same,PT,"[…], time 28 day",12.3 s
same,Plat,"[…], time 28 day",110 x10_4/uL
same,RBC,"[…], time 28 day",747 x10_4/ul
same,Ret,"[…], time 28 day",2.2%
same,WBC,"[…], time 28 day",117.7 x10_2/uL
same,KIDNEY_L,"[…], time 7 day",1.1 g
same,KIDNEY_R,"[…], time 7 day",1.1 g
same,KIDNEY_TOTAL,"[…], time 7 day",2.2 g
same,KIDNEY_L,"[…], time 14 day",1.2 g
same,KIDNEY_R,"[…], time 14 day",1.2 g
same,KIDNEY_TOTAL,"[…], time 14 day",2.4 g
same,KIDNEY_L,"[…], time 28 day",1.4 g
same,KIDNEY_R,"[…], time 28 day",1.5 g
same,KIDNEY_TOTAL,"[…], time 28 day",2.9 g
same,LIVER,"[…], time 7 day",11.7 g
same,LIVER,"[…], time 14 day",13.8 g
same,LIVER,"[…], time 28 day",16.3 g
same,A/G,"[…], time 7 day",1.5
same,ALP,"[…], time 7 day",802.2 IU/L
same,ALT,"[…], time 7 day",33.2 IU/L
same,AST,"[…], time 7 day",61.4 IU/L
same,BUN,"[…], time 7 day",14.6 mg/dL
same,CRE,"[…], time 7 day",0.4 mg/dL
same,Ca,"[…], time 7 day",10.6 mg/dL
same,Cl,"[…], time 7 day",103.8 meq/L
same,DBIL,"[…], time 7 day",0.084 mg/dL
same,GLC,"[…], time 7 day",211.6 mg/dL
same,IP,"[…], time 7 day",7.5 mg/dL
same,K,"[…], time 7 day",3.8 meq/L
same,LDH,"[…], time 7 day",159.2 IU/L
same,Na,"[…], time 7 day",141 meq/L
same,PL,"[…], time 7 day",138.2 mg/dL
same,RALB,"[…], time 7 day",3.4 g/dL
same,TBIL,"[…], time 7 day",0.1 mg/dL
same,TC,"[…], time 7 day",72.8 mg/dL
same,TG,"[…], time 7 day",83 mg/dL
same,TP,"[…], time 7 day",5.7 g/dL
same,gamma-GTP,"[…], time 7 day",1.4 IU/L
same,A/G,"[…], time 14 day",1.4
same,ALP,"[…], time 14 day",849.4 IU/L
same,ALT,"[…], time 14 day",36.4 IU/L
same,AST,"[…], time 14 day",70.4 IU/L
same,BUN,"[…], time 14 day",17.4 mg/dL
same,CRE,"[…], time 14 day",0.5 mg/dL
same,Ca,"[…], time 14 day",10.6 mg/dL
same,Cl,"[…], time 14 day",103.6 meq/L
same,DBIL,"[…], time 14 day",0.098 mg/dL
same,GLC,"[…], time 14 day",203.8 mg/dL
same,IP,"[…], time 14 day",7.1 mg/dL
same,K,"[…], time 14 day",4 meq/L
same,LDH,"[…], time 14 day",228.8 IU/L
same,Na,"[…], time 14 day",142.2 meq/L
same,PL,"[…], time 14 day",151.6 mg/dL
same,RALB,"[…], time 14 day",3.5 g/dL
same,TBIL,"[…], time 14 day",0.2 mg/dL
same,TC,"[…], time 14 day",68.6 mg/dL
same,TG,"[…], time 14 day",142.4 mg/dL
same,TP,"[…], time 14 day",6 g/dL
same,gamma-GTP,"[…], time 14 day",1 IU/L
same,A/G,"[…], time 28 day",1.3
same,ALP,"[…], time 28 day",642.2 IU/L
same,ALT,"[…], time 28 day",34.6 IU/L
same,AST,"[…], time 28 day",60.2 IU/L
same,BUN,"[…], time 28 day",18 mg/dL
same,CRE,"[…], time 28 day",0.5 mg/dL
same,Ca,"[…], time 28 day",10.5 mg/dL
same,Cl,"[…], time 28 day",102.8 meq/L
same,DBIL,"[…], time 28 day",0.1 mg/dL
same,GLC,"[…], time 28 day",200 mg/dL
same,IP,"[…], time 28 day",6.9 mg/dL
same,K,"[…], time 28 day",3.6 meq/L
same,LDH,"[…], time 28 day",112 IU/L
same,Na,"[…], time 28 day",141.2 meq/L
same,PL,"[…], time 28 day",138.4 mg/dL
same,RALB,"[…], time 28 day",3.4 g/dL
same,TBIL,"[…], time 28 day",0.2 mg/dL
same,TC,"[…], time 28 day",64.6 mg/dL
same,TG,"[…], time 28 day",125.6 mg/dL
same,TP,"[…], time 28 day",6.1 g/dL
same,gamma-GTP,"[…], time 28 day",1 IU/L
